From US5316771A, “Method of amphiphatic drug loading in liposomes by ammonium ion gradient” (priority 1992, dated 1994)
Where two headings read alike, the source gives them in different places.

How the values were obtained:
[1] = Quenching of acridine orange fluorescence on incorporation into liposomes; type: physicochemical; settings: liposomes with external ammonium sulfate removed
Procedure: In order to further substantiate the existence of the ammonium gradient, the same experiment as described above was repeated with the other compounds such as acridine orange, a cytotoxic drug acridine orange is an amphiphatic weak base (pK=9.25), which has the advantage of being fluorescent. Instead of trapping pyranine inside the ammonium sulfate liposomes, liposomes were added to a solution containing acridine orange. The quenching of the resulting solution was monitored following partitioning into the aqueous phase of the liposome, using the experimental designs described in Example 5 and illustrated in FIG. 2.
Inset graph is an example of one of the experiments. Percentage of fluorescence intensity (F.I.) of acridine orange was monitored continuously and is shown here as (a). At the specified time (b) liposomes were added and the quenching was followed. At steady state, 5 um of nigericin was added, shown here as (c) and the extent of the release of quenching was used to calculate the ammonium sulfate gradient dependent fluorescence intensity. The details of the experiment are described in Example 5.
1 umol of acridine orange was added to a solution containing different proportions of potassium chloride and ammonium sulfate. The solution was designed to get different outside-inside gradients of ammonium sulfate when the liposomes are added. […] The recovery of fluorescence was monitored. […]

[2] = cited from earlier work
[3] = Loading of daunorubicin into ammonium sulfate liposomes
Procedure: After separation of untrapped ammonium sulfate by Sephadex G- 50, 1 ml of the liposome dispersion was mixed with 10 mg of daunorubicin dissolved in 1 ml of 50° C. and at specified time intervals aliquots were taken.

[4] = sodium/potassium gradient with valinomycin; cited from earlier work
[5] = around 24 hours; cited from earlier work
[6] = Loading of doxorubicin into ammonium sulfate liposomes (NH4+ gradient), Dowex removal of free drug; type: physicochemical; settings: biphasic, FIG. 3
Procedure: Two preparations of liposomes were used, one composed of EPC and cholesterol in molar ratio of 2:1; and second of DPPC and cholesterol in molar ratio 2:1.
The loading was started after removal of external untrapped ammonium sulfate by Sephadex G-50 gel exclusion chromatography.
Dowex binds Desferal and therefore the latter was added to final concentration of 0.5 mM immediately after the removal of the free drug by Dowex.
In order to determine the concentration of a loaded drug inside liposomes, the internal aqueous osmotic volume of the vesicles was measured. This was done by the entrapment of the non-measurable radioactive tracer ^3 H inulin. The comparison of the radioactivity per mole phospholipids before and after removal of the untrapped inulin was used to determine trapped volume using a procedure described in individual examples.
In all cases the gradient was obtained by gel exclusion chromatography of the liposomes after ammonium sulfate loading.
The incubation was shorter for certain types of kinetic experiments. At the end of incubation period, the mixture was passed through a Dowex 50 WX-4 (Serva) column to adsorb the free, unincorporated drug. […] A column containing 1-2 g dry weight of the resin was sufficient to adsorb all unincorporated drug. […] EPC was used for a standard curve.
The mixture was incubated at room temperature for approximately 24 hours. […]

[7] = Self-quenching of doxorubicin fluorescence; type: physicochemical
Procedure: The measurements were carried on a Perkin-Elmer MPF-44 spectrofluorometer, using excitation/emission wavelengths of 470 nm and 590 nm respectively. […] This was calculated from the difference between the fluorescence of the liposomes prepared according to Examples 1-4, and the fluorescence of the same mixture after diluting it 10 times with isopropanol containing 10% of 0.75% HCI. […] A correction for the difference in fluorescence of doxorubicin in water and the acidified isopropanol solution, deduced from measurements of the fluorescence of "free" drug in the two solutions, was introduced. The small amount of unquenched doxorubicin is probably due to some free-drug that leaked out of the vesicles.

[8] = Biochemistry, 21:3927-3932; cited from earlier work
[9] = From the text: For this, ammonium carbonate (0.12M) was placed in a beaker. The ultrasound probe was attached to the beaker.

CN(C)c1ccc2cc3ccc(N(C)C)cc3nc2c1 [Acridine orange]
Quenching of acridine orange fluorescence [1]: 96.5%
pK [2]: 9.25

COc1cccc2c1C(=O)c1c(O)c3c(c(O)c1C2=O)C[C@@](O)(C(C)=O)C[C@@H]3O[C@H]1C[C@H](N)[C@H](O)[C@H](C)O1 [Daunorubicin]
Rate of incorporation compared with doxorubicin [3]: higher than that of doxorubicin
Time to completion of incorporation [3]: less than one hour

CCCCOc1cc(C(=O)NCCN(CC)CC)c2ccccc2n1 [Dibucaine]
Loading [4]: up to 52%

COc1cccc2c1C(=O)c1c(O)c3c(c(O)c1C2=O)C[C@@](O)(C(=O)CO)C[C@@H]3O[C@H]1C[C@H](N)[C@H](O)[C@H](C)O1 [Doxorubicin]
Leakage from liposomes [5]: substantial leakage
Duration of slower phase of loading [6]: about 24 hours
Concentration above which fluorescence is quenched ([7]; in saline): higher than 10^-6 M
Quenching ([7]; in solution, concentration 1.7.10^-4, corrected for inner filter effect): 33%
Quenching ([7]; in solution, concentration 3.4.10^-5, corrected for inner filter effect): 16%
Quenching ([7]; in solution, concentration 6.9.10^-5, corrected for inner filter effect): 25%
Quenching ([7]; inside the liposomes): ~100%
Concentration above which dimers and aggregates form [8]: higher than 1 um

N.N.O=C(O)O [ammonium carbonate]
Ultrasound signal ([9]; HCl added to pH 4.0): large signal
Ultrasound signal ([9]; before acidification, 0.12M): No signal was observed
